Assay results published in the NIST ThermoML archive (doi:10.1021/je900468u).
± gives the expanded uncertainty stated by the source.

Legend:
[1] = refractive index (Na D-line) (dimensionless); xn = mol fraction of the nth substance listed; conditions: 101 kPa, Liquid, Standard Abbe refractometry
[2] = xn = mol fraction of the nth substance listed; conditions: 101 kPa, Liquid; for speed of sound: Pulse-echo method

C1CCCCCCC1 [cyclooctane] + Cc1ccccc1
298.15 K
Conditions	mass density, [2] [kg/m3]	refractive index, [1]	speed of sound, [2] [m/s]
x1 = 0.0488	859.8 ± 0.4	1.49121 ± 0.00068	1307 ± 2
x1 = 0.1031	857 ± 0.4	1.48824 ± 0.00068	1309 ± 2
x1 = 0.2021	852.5 ± 0.4	1.48313 ± 0.00068	1315 ± 2
x1 = 0.2973	848.5 ± 0.4	1.47861 ± 0.00068	1321 ± 2
x1 = 0.4014	844.7 ± 0.4	1.47411 ± 0.00068	1329 ± 2
x1 = 0.5	841.5 ± 0.4	1.47026 ± 0.00069	1337 ± 2
x1 = 0.6005	838.7 ± 0.5	1.46667 ± 0.00069	1347 ± 2
x1 = 0.6976	836.4 ± 0.5	1.46358 ± 0.00069	1356 ± 2
x1 = 0.7981	834.4 ± 0.5	1.46073 ± 0.0007	1367 ± 2
x1 = 0.9007	832.8 ± 0.5	1.45814 ± 0.0007	1378 ± 2
x1 = 0.9494	832.1 ± 0.5	1.45705 ± 0.0007	1384 ± 2
x1 = 1	831.5 ± 0.5	1.45598 ± 0.0007	1391 ± 2

C1CCCCCCC1 [cyclooctane] + c1ccccc1
298.15 K
Conditions	mass density, [2] [kg/m3]	refractive index, [1]	speed of sound, [2] [m/s]
x1 = 0.0522	869.3 ± 0.4	1.49384 ± 0.00068	1300 ± 2
x1 = 0.102	865.4 ± 0.4	1.49019 ± 0.00068	1301 ± 2
x1 = 0.203	858.5 ± 0.4	1.48375 ± 0.00068	1306 ± 2
x1 = 0.3029	852.8 ± 0.4	1.47827 ± 0.00068	1313 ± 2
x1 = 0.4033	847.9 ± 0.4	1.47346 ± 0.00068	1322 ± 2
x1 = 0.5002	843.9 ± 0.4	1.46955 ± 0.00069	1331 ± 2
x1 = 0.5985	840.5 ± 0.5	1.46607 ± 0.00069	1342 ± 2
x1 = 0.7025	837.5 ± 0.5	1.46284 ± 0.00069	1354 ± 2
x1 = 0.7983	835.2 ± 0.5	1.4603 ± 0.0007	1365 ± 2
x1 = 0.8946	833.3 ± 0.5	1.45808 ± 0.0007	1377 ± 2
x1 = 0.9504	832.4 ± 0.5	1.45694 ± 0.0007	1384 ± 2
x1 = 1	831.5 ± 0.5	1.45598 ± 0.0007	1391 ± 2

CCc1ccccc1 [ethylbenzene] + C1CCCCC1
Conditions	mass density, [2] [kg/m3]	refractive index, [1]	speed of sound, [2] [m/s]
283.15 K, x2 = 0	875.7 ± 0.4	1.50129 ± 0.00063	1382 ± 2
283.15 K, x2 = 0.0476	871.4 ± 0.4	1.49802 ± 0.00062	1377 ± 2
283.15 K, x2 = 0.0982	866.9 ± 0.4	1.49455 ± 0.00062	1372 ± 2
283.15 K, x2 = 0.1983	857.9 ± 0.4	1.48762 ± 0.00063	1364 ± 2
283.15 K, x2 = 0.2982	848.9 ± 0.4	1.48066 ± 0.00063	1356 ± 2
283.15 K, x2 = 0.3973	840.1 ± 0.4	1.47373 ± 0.00063	1349 ± 2
283.15 K, x2 = 0.5016	830.7 ± 0.4	1.46641 ± 0.00063	1342 ± 2
283.15 K, x2 = 0.6008	821.8 ± 0.4	1.45942 ± 0.00064	1337 ± 2
283.15 K, x2 = 0.6995	813.2 ± 0.4	1.45257 ± 0.00063	1332 ± 2
283.15 K, x2 = 0.7998	804.4 ± 0.4	1.44558 ± 0.00064	1329 ± 2
283.15 K, x2 = 0.8967	796.3 ± 0.5	1.43898 ± 0.00064	1328 ± 2
283.15 K, x2 = 0.9451	792.3 ± 0.5	1.43569 ± 0.00064	1328 ± 2
298.15 K, x2 = 0	862.5 ± 0.4	1.49304 ± 0.00063	1319 ± 2
298.15 K, x2 = 0.0476	858.2 ± 0.4	1.48992 ± 0.00063	1314 ± 2
298.15 K, x2 = 0.0982	853.7 ± 0.4	1.48645 ± 0.00063	1309 ± 2
298.15 K, x2 = 0.1983	844.7 ± 0.4	1.47947 ± 0.00063	1300 ± 2
298.15 K, x2 = 0.2982	835.6 ± 0.4	1.47245 ± 0.00063	1291 ± 2
298.15 K, x2 = 0.3973	826.7 ± 0.4	1.46552 ± 0.00063	1283 ± 2
298.15 K, x2 = 0.5016	817.2 ± 0.4	1.45815 ± 0.00063	1275 ± 2
298.15 K, x2 = 0.6008	808.3 ± 0.4	1.45116 ± 0.00063	1268 ± 2
298.15 K, x2 = 0.6995	799.5 ± 0.5	1.44433 ± 0.00063	1263 ± 2
298.15 K, x2 = 0.7998	790.7 ± 0.5	1.43731 ± 0.00063	1258 ± 2
298.15 K, x2 = 0.8967	782.4 ± 0.5	1.43062 ± 0.00064	1255 ± 2
298.15 K, x2 = 0.9451	778.4 ± 0.5	1.42735 ± 0.00064	1254 ± 2

CCc1ccccc1 [ethylbenzene] + C1CCCCCCC1
298.15 K, x2 = 0
Conditions	mass density [kg/m3]	refractive index	speed of sound [m/s]
[1]	–	1.49304 ± 0.00068	–
[2]	862.5 ± 0.4	–	1319 ± 2

CCc1ccccc1 [ethylbenzene] + CC1CCCCC1
x2 = 0
Conditions	mass density, [2] [kg/m3]	refractive index, [1]	speed of sound, [2] [m/s]
283.15 K	875.7 ± 0.4	1.50129 ± 0.00063	1382 ± 2
298.15 K	862.5 ± 0.4	1.49304 ± 0.00063	1319 ± 2

CC1CCCCC1 [methylcyclohexane] + CCc1ccccc1
Conditions	mass density, [2] [kg/m3]	refractive index, [1]	speed of sound, [2] [m/s]
283.15 K, x1 = 0.0494	870.3 ± 0.4	1.49728 ± 0.00062	1376 ± 2
283.15 K, x1 = 0.0975	865.2 ± 0.4	1.49353 ± 0.00062	1369 ± 2
283.15 K, x1 = 0.1983	854.6 ± 0.4	1.4855 ± 0.00062	1356 ± 2
283.15 K, x1 = 0.2981	844.4 ± 0.4	1.47786 ± 0.00063	1345 ± 2
283.15 K, x1 = 0.4008	834.1 ± 0.4	1.47018 ± 0.00063	1333 ± 2
283.15 K, x1 = 0.5005	824.2 ± 0.5	1.46281 ± 0.00063	1323 ± 2
283.15 K, x1 = 0.6001	814.6 ± 0.5	1.45566 ± 0.00063	1313 ± 2
283.15 K, x1 = 0.7006	805.2 ± 0.5	1.44856 ± 0.00063	1304 ± 2
283.15 K, x1 = 0.7952	796.4 ± 0.5	1.44194 ± 0.00064	1297 ± 2
283.15 K, x1 = 0.8949	787.3 ± 0.6	1.43542 ± 0.00063	1289 ± 2
283.15 K, x1 = 0.9495	782.4 ± 0.6	1.43163 ± 0.00064	1285 ± 2
283.15 K, x1 = 1	777.9 ± 0.6	1.42833 ± 0.00063	1281 ± 2
298.15 K, x1 = 0.0494	857.2 ± 0.4	1.48923 ± 0.00062	1312 ± 2
298.15 K, x1 = 0.0975	852.1 ± 0.4	1.48542 ± 0.00062	1305 ± 2
298.15 K, x1 = 0.1983	841.5 ± 0.4	1.47754 ± 0.00062	1292 ± 2
298.15 K, x1 = 0.2981	831.2 ± 0.4	1.46988 ± 0.00062	1280 ± 2
298.15 K, x1 = 0.4008	820.9 ± 0.5	1.46219 ± 0.00062	1268 ± 2
298.15 K, x1 = 0.5005	811 ± 0.5	1.45484 ± 0.00062	1258 ± 2
298.15 K, x1 = 0.6001	801.4 ± 0.5	1.44771 ± 0.00063	1247 ± 2
298.15 K, x1 = 0.7006	791.9 ± 0.5	1.44068 ± 0.00063	1236 ± 2
298.15 K, x1 = 0.7952	783.1 ± 0.6	1.43414 ± 0.00062	1230 ± 2
298.15 K, x1 = 0.8949	774.2 ± 0.6	1.42751 ± 0.00064	1222 ± 2
298.15 K, x1 = 0.9495	769.3 ± 0.6	1.4239 ± 0.00063	1218 ± 2
298.15 K, x1 = 1	765.1 ± 0.6	1.42062 ± 0.00063	1215 ± 2
